Reference: patent publication US20230399325A1, “SUCCINATE AND CRYSTAL FORM THEREOF AS THERAPEUTICS” (AUCENTRA THERAPEUTICS PTY LTD, priority 2020, published 2023)
≈ marks a conversion by molar mass, not a printed value. Where “and” joins values, the source holds several entries; their conditions need not be identical. Equal entries are not always repeated. Where two headings read alike, the source gives them in different places.

Columns and labels:
[1] = Solid-state stability, 14 days, HPLC; assay type: physicochemical
Experimental: Compound A salts and Compound A were tested for their solid-state stability under the conditions of 25° C./60% RH and 40° C./75% RH.

[2] = Hygroscopicity by dynamic moisture adsorption (DVS); assay type: physicochemical; conditions: for Hygroscopicity: 25° C./80% RH
Experimental: Dynamic moisture adsorption (DVS) was used to evaluate the hygroscopicity of compound A and salt forms under the condition of 25° C. and 80% RH.

[3] = Dynamic solubility in water and FaSSIF at 37° C.; assay type: physicochemical; conditions: for solubility at 1 h / solubility at 2 h / solubility at 4 h / solubility at 24 h: thermodynamic from solid, read-out: S: Solubility; for solubility compared to Compound A free base: both FaSSIF and water
[4] = Pharmacokinetic study of Compound A in male cynomolgus monkeys; assay type: in vivo
Experimental: Two groups of male cynomolgus monkeys (n=3 per group) were given Compound A by a single intravenous injection (i.v.) of 5 mg/kg, or intragastric administration (i.g.) of 50 mg/kg. Blood samples were collected at different time points. The exposure of Compound A in plasma samples were measured by LC-MS/MS method, and PK parameters (Table 8) were calculated using Phoenix WinNonlin 8.0 software.

[5] = tested on: A2780 ovarian cancer cells; experiment: Subcutaneous A2780 ovarian cancer xenograft; assay type: in vivo, female BALB/c nude mice; conditions: 75 mg/kg orally once a day
Experimental: Compound A succinate was also assessed for in vivo anti-tumor activity in subcutaneous xenografts. Briefly, female BALB/c nude mice were inoculated with A2780 ovarian cancer cells; when the mean tumour volume reached 150-200 mm^3, animals were randomized to groups. The animals (n=8 per group) were treated orally with vehicle (ultra-pure water), Compound A succinate (62.5, 125 or 250 mg/kg), or Palbociclib (75 mg/kg) once a day for 14 consecutive days. Mice were observed daily for signs of toxicity and weight loss, and tumour volume measured every other day. […] Palbociclib was efficacious at 75 mg/kg, resulting in T/C of 42.8% (Table 6).

[6] = tested on: COLO 205 colorectal tumor xenograft; experiment: COLO 205 colorectal tumor xenograft; assay type: in vivo, mice; conditions: 15 mg/kg intraperitoneally
Experimental: A separate study of Compound A succinate was conducted in COLO 205 colorectal tumor xenograft. The tumor-bearing mice (n=8) were treated orally with vehicle (ultra-pure water), or Compound A succinate (50 or 100 mg/kg) once daily for 21 days. As a positive control chemotherapy 5-FU (15 mg/kg) was given intraperitoneally. […] 5-FU was also effective with a T/C=47.2% (Table 7).

[7] = cynomolgus monkey, plasma, iv, i.v. 5 mg/kg
[8] = cynomolgus monkey, plasma, po, i.g. 50 mg/kg

With CCN1CCN(Cc2ccc(Nc3ncc(F)c(-c4sc(NC5CCCC5)nc4C)n3)nc2)CC1 [Compound A, N-Cyclopentyl-5-(2-((5-((4-ethylpiperazin-1-yl)methyl)pyridin-2-yl)amino)-5-fluoropyrimidin-4-yl)-4-methylthiazol-2-amine] the Purity ([1]; 25° C./60% RH) was 97.6 area %, the Relative purity ([1]; 25° C./60% RH) was 100.0 % of initial and the Purity ([1]; 40° C./75% RH) was 97.6 area %. For the same compound, the Relative purity ([1]; 40° C./75% RH) was 100.1 % of initial, the “Moisture absorbed at 25° C./80% RH” value [2] was 1.4% and the Hygroscopicity [2] was “Slightly hygroscopic”. The solubility at 1 h ([3]; FaSSIF, 1 hour) was 270 µg/mL (≈ 544 µM), the solubility at 2 h ([3]; FaSSIF, 2 hours) was 280 µg/mL (≈ 564 µM) and the solubility at 4 h ([3]; FaSSIF, 4 hours) was 240 µg/mL (≈ 483 µM). It also gave a solubility at 24 h ([3]; FaSSIF, 24 hours) of 200 µg/mL (≈ 403 µM), a solubility at 1 h ([3]; water, H2O, 1 hour) of 220 µg/mL (≈ 443 µM) and a solubility at 2 h ([3]; water, H2O, 2 hours) of 240 µg/mL (≈ 483 µM). For the same compound, the solubility at 4 h ([3]; water, H2O, 4 hours) was 240 µg/mL (≈ 483 µM), the solubility at 24 h ([3]; water, H2O, 24 hours) was 220 µg/mL (≈ 443 µM) and the AUC(0-inf) [4, 7] was 4560 ng·h/mL. For the same compound, the AUC(0-t) [4, 7] was 4190 ng·h/mL, the Cmax [4, 7] was 447 ng/mL and the Vd [4, 7] was 9.8 L/kg. It also gave a clearance [4, 7] of 19.4 mL/min/kg, a half-life [4, 7] of 6.5 h and a Cmax [4, 8] of 643 ng/mL. For the same compound, the half-life [4, 8] was 8.3 h and the F ([4]; i.g. 50 mg/kg) was 21.8%.

In the case of CC(=O)c1c(C)c2cnc(Nc3ccc(N4CCNCC4)cn3)nc2n(C2CCCC2)c1=O [Palbociclib, reference compound], the “Tumor volume (±S)” value ([5]; 14 days) is reported as 1850.1 ± 121.1 mm^3 and the “Mean tumor growth inhibition (T/C)” value ([5]; day 14) is reported as 42.8% and 42.79%.

In the case of CCN1CCN(Cc2ccc(Nc3ncc(F)c(-c4sc(NC5CCCC5)nc4C)n3)nc2)CC1.O=P(O)(O)O [Compound A phosphate], the Purity ([1]; 25° C./60% RH) is reported as 98.3 area %, the Relative purity ([1]; 25° C./60% RH) is reported as 100.0 % of initial and the Purity ([1]; 40° C./75% RH) is reported as 98.2 area %. The Relative purity ([1]; 40° C./75% RH) was 99.9 % of initial, the “Moisture absorbed at 25° C./80% RH” value [2] was 3.7% and the Hygroscopicity [2] was “Hygroscopic”. The “S: Solubility” value ([3]; FaSSIF, 1 hour) was 1700 µg/mL, the “S: Solubility” value ([3]; FaSSIF, 2 hours) was 670 µg/mL and the “S: Solubility” value ([3]; FaSSIF, 4 hours) was 470 µg/mL. For the same compound, the “S: Solubility” value ([3]; FaSSIF, 24 hours) was 330 µg/mL, the “S: Solubility” value ([3]; H2O, 1 hour) was 450 µg/mL and the “S: Solubility” value ([3]; H2O, 2 hours) was 410 µg/mL. The “S: Solubility” value ([3]; H2O, 4 hours) was 440 µg/mL and the “S: Solubility” value ([3]; H2O, 24 hours) was 360 µg/mL.

For O=c1[nH]cc(F)c(=O)[nH]1 [Compound 5-FU, 5-FU, reference compound], the “Inhibition of tumor growth (T/C)” value [6] was 47.2% and the “Tumor volume (±S)” value [6] was 799.62 ± 61.95 mm^3.

With CCN1CCN(Cc2ccc(Nc3ncc(F)c(-c4sc(NC5CCCC5)nc4C)n3)nc2)CC1.Cl [Compound A hydrochloride] the Purity ([1]; 25° C./60% RH) was 97.6 area %, the Relative purity ([1]; 25° C./60% RH) was 99.9 % of initial and the Purity ([1]; 40° C./75% RH) was 97.7 area %. For the same compound, the Relative purity ([1]; 40° C./75% RH) was 100.0 % of initial, the “Moisture absorbed at 25° C./80% RH” value [2] was 3.4% and the Hygroscopicity [2] was “Hygroscopic”. For the same compound, the “S: Solubility” value ([3]; FaSSIF, 1 hour) was 2000 µg/mL, the “S: Solubility” value ([3]; FaSSIF, 2 hours) was 2000 µg/mL and the “S: Solubility” value ([3]; FaSSIF, 4 hours) was 2200 µg/mL. For the same compound, the “S: Solubility” value ([3]; FaSSIF, 24 hours) was 2100 µg/mL, the “S: Solubility” value ([3]; H2O, 1 hour) was 6800 µg/mL and the “S: Solubility” value ([3]; H2O, 2 hours) was 7100 µg/mL. The “S: Solubility” value ([3]; H2O, 4 hours) was 7200 µg/mL, the “S: Solubility” value ([3]; H2O, 24 hours) was 6800 µg/mL and the “solubility compared to Compound A free base” value [3] was “significantly increased”.

In the case of CCN1CCN(Cc2ccc(Nc3ncc(F)c(-c4sc(NC5CCCC5)nc4C)n3)nc2)CC1.CS(=O)(=O)O [Compound A mesylate], the Purity ([1]; 25° C./60% RH) is reported as 97.6 area %, the Relative purity ([1]; 25° C./60% RH) is reported as 100.1 % of initial and the Purity ([1]; 40° C./75% RH) is reported as 97.5 area %. The Relative purity ([1]; 40° C./75% RH) was 100.0 % of initial, the “Moisture absorbed at 25° C./80% RH” value [2] was 14.4% and the Hygroscopicity [2] was “Extremely hygroscopic”. For the same compound, the “S: Solubility” value ([3]; FaSSIF, 1 hour) was 8800 µg/mL, the “S: Solubility” value ([3]; FaSSIF, 2 hours) was 8300 µg/mL and the “S: Solubility” value ([3]; FaSSIF, 4 hours) was 8400 µg/mL. For the same compound, the “S: Solubility” value ([3]; FaSSIF, 24 hours) was 4400 µg/mL, the “S: Solubility” value ([3]; H2O, 1 hour) was 8200 µg/mL and the “S: Solubility” value ([3]; H2O, 2 hours) was 8300 µg/mL. For the same compound, the “S: Solubility” value ([3]; H2O, 4 hours) was 8600 µg/mL, the “S: Solubility” value ([3]; H2O, 24 hours) was 8500 µg/mL and the “solubility compared to Compound A free base” value [3] was “significantly increased”.
